{
  "source": "patent US20240336551A1",
  "about": "“BIODEGRADEBLE MATERIAL MANUFACTURING METHOD AND SYSTEM” (NOROO IC Co., Ltd., priority 2023, published 2024)",
  "key": {"[1]": {"test_system": "microorganisms", "assay": "Sterilization experiment, overall conclusion", "format": "cell-based", "conditions": "conclusion drawn from Table 1", "protocol": "(§1) Meanwhile, a sterilization experiment was conducted on ethyl 3-HP, a biodegradable material manufactured by the system of the present invention, and the data thereof is shown in Table 1 below. The sterilization experiment was conducted by a test method according to the KCL-FIR-1002:2021 standard.\nFrom the above data, it can be confirmed that […]."}, "[2]": {"assay": "Degree of biodegradability: cumulative amount of CO2 generated over time (FIG. 4)", "excerpt": "In describing the present invention, “biodegradable” refers to a definition based on ASTM […]-15 (Standard Test Method for Determination of Aerobic Biodegradation of Plastic Materials Under Controlled Composting Conditions, Incorporating Thermophilic Temperatures). […] This is a much faster biodegradation rate than that of poly (lactic acid) (PLA), which is a biodegradable polymer."}, "[3]": {"test_system": "Staphylococcus aureus ATCC 6538", "assay": "Sterilization experiment (antimicrobial test, KCL-FIR-1002:2021): Staphylococcus aureus", "format": "cell-based", "protocol": "as §1"}, "[4]": {"test_system": "Streptococcus mutans ATCC 25175", "assay": "Sterilization experiment (antimicrobial test, KCL-FIR-1002:2021): Streptococcus mutans", "format": "cell-based", "protocol": "as §1"}, "[5]": {"test_system": "MRSA bacteria (Staphylococcus aureus subsp. aureus)", "assay": "Sterilization experiment (antimicrobial test, KCL-FIR-1002:2021): MRSA bacteria", "format": "cell-based", "protocol": "as §1"}, "[6]": {"test_system": "Streptococcus (Bacillus cereus ATCC 11778)", "assay": "Sterilization experiment (antimicrobial test, KCL-FIR-1002:2021): Bacillus cereus", "format": "cell-based", "conditions": "initial concentration 3.0*10^4 CFU/ml, BLANK 3.1*10^5", "protocol": "as §1"}, "[7]": {"test_system": "(Bacillus cereus ATCC 11778)", "assay": "Sterilization experiment (antimicrobial test, KCL-FIR-1002:2021): Bacillus cereus", "format": "cell-based", "conditions": "after 24 hours, versus BLANK", "protocol": "as §1"}, "[8]": {"test_system": "Escherichia coli ATCC 25922", "assay": "Sterilization experiment (antimicrobial test, KCL-FIR-1002:2021): Escherichia coli", "format": "cell-based", "protocol": "as §1"}},
  "data": [
    {"smiles": "O=C(O)CCO", "note": "[3-HP, 3-hydroxy propionate]", "values": [
      {"measurement": "Bacteriostatic / sterilizing effect", "setting": "[1]", "result": "only the bacteriostatic effect and no sterilizing effect"},
      {"measurement": "Biodegradability compared to PLA", "setting": "[2]", "result": "excellent biodegradability compared to PLA"}
    ]},
    {"smiles": "CCOC(=O)CCO", "note": "[Ethyl 3-HP, ethyl 3-hydroxypropionate]", "values": [
      {"measurement": "Bacteriostatic reduction rate", "setting": "[3]; after 24 hours, versus BLANK", "result": 8.1, "unit": "%"},
      {"measurement": "Concentration after 24 hours", "setting": "[3]; initial concentration 3.4*10^4 CFU/ml, BLANK 3.7*10^5", "result": "3.4*10^5 CFU/ml"},
      {"measurement": "Bacteriostatic reduction rate", "setting": "[4]; after 24 hours, versus BLANK", "result": 48.1, "unit": "%"},
      {"measurement": "Concentration after 24 hours", "setting": "[4]; initial concentration 2.6*10^4 CFU/ml, BLANK 2.7*10^5", "result": "1.4*10^5 CFU/ml"},
      {"measurement": "Bacteriostatic reduction rate", "setting": "[5]; after 24 hours, versus BLANK", "result": 61.5, "unit": "%"},
      {"measurement": "Concentration after 24 hours", "setting": "[5]; initial concentration 2.5*10^4 CFU/ml, BLANK 2.6*10^5", "result": "1.0*10^5 CFU/ml"},
      {"measurement": "Concentration after 24 hours", "setting": "[6]", "result": "1.7*10^5 CFU/ml"},
      {"measurement": "Bacteriostatic reduction rate", "setting": "[7]", "result": 45.1, "unit": "%"},
      {"measurement": "Biodegradability compared to PLA", "setting": "[2]", "result": "excellent biodegradability compared to PLA"},
      {"measurement": "Bacteriostatic reduction rate", "setting": "[8]; after 24 hours, versus BLANK", "result": 20, "unit": "%"},
      {"measurement": "Concentration after 24 hours", "setting": "[8]; initial concentration 1.3*10^4 CFU/ml, BLANK 1.5*10^5", "result": "1.2*10^5 CFU/ml"}
    ]}
  ]
}
